# Assay results: patent US4738803A, “Amino acid derivatives and their use as antidepressives and hypotensive agents” (priority 1981, dated 1988)
# Like-named read-outs stand apart in the source and are kept apart here.
# How the values were obtained:
# [1] = target: enkephalinase; assay: Dosage of enkephalinasic (enkephalin dipeptidylcarboxypeptidasic) activity, effect of the inhibitors (striatal membrane fraction); assay type: biochemical, rat or mouse; conditions: 10 nM leucine-enkephalin ^3H, 0.1 mM puromycine, pH 7.4, 25° C, 15 min; read-out: 50% inhibitory concentration
# Protocol: (I) Dosage of the "enkephalinasic" activity (enkephalin dipeptidylcarboxypeptidasic) and determination of the effect of the inhibitors
# The enzyme preparation employed is a membrane fraction from the striatum of the rat or mouse.
# This fraction is obtained by homogenization at 4° C. in 20 volumes of Tris-Hl buffer 0.05M (pH 7.4) followed by two successive centrifugations (1000 g×min. and 200,000 g×min.) at the end of which the sediment of the second centrifugation is retained. It is washed by resuspension in 10 ml of the buffer followed by centrifugation (200,000 g×min.) and the resulting sediment is in turn washed superficially to complete the removal soluble enzymes. The resulting membrane fraction is taken up into the buffer at 4° C. to obtain a suspension comprising about 1.5 mg of proteins per ml.
# An aliquot sample (50 μl) of the membrane suspension is then incubated in a final volume of 100 μl at 25° C. in the presence of 10 nM leucine-enkephalin ^3 H (39 Ci/mmole), previously purified by column chromatography over Porapak Q(100-120 mesh, Waters Assoc.) and 0.1 mM puromycine, an aminopeptidase inhibitor. The incubation time is generally set at 15 min. so as to determine the initial rate of formation of tripeptide Tyr-Gly-Gly-^3 H caracteristic of the enkephalin dipeptidylcarboxypeptidasic (enkephalinasic) activity. The reaction is terminated by the addition of 25 μl of 0.2N HCl and the tripeptide is isolated by column chromatography over Polopak Q or on a thin layer of silica, according to the methods described by Malfroy et al (B. Malfroy, J. P. Swerts, C. Llorens and J. C. Schwartz, Neuro-Science Letters, 11, 329, 1979).
# The results obtained with either method have always been consistent.
# Determination of the radioactivity of the tripeptide is effected by liquid scintillation spectrometry.
# The effect of the inhibitors is established by experiments with increasing concentrations of such materials, which leads to the determination of the 50% inhibitory concentrations calculated by means of data according to the method of Parker and Waud (J. Pharmacol. Exper. Ther. 177, 1, 1971). In some cases, the competitive nature of the inhibition was established by incubation experiments with a fixed concentration of the inhibitor and increasing concentrations of the substrate.
# [2] = test system: licking reflex of mice on a plate heated at 55° C; assay: Hot plate test: potentiation of the antalgic effect of D Ala2 Met Enkephalin; assay type: in vivo; conditions: for increase in the licking time with respect to animals treated with DAla2 Met Enkephalin (0.3γ intraventricular): 30 mg/kg intravenous; for antagonism of the potentiating effect by Naloxone / potentiation of the effect of a subactive dosage (0.3γ) of D Ala2 Met Enkephalin: 30γ, in words; for potentiation of the effect of a subactive dosage (0.3γ) of D Ala2 Met Enkephalin: p<0.05
# Protocol: (§1) Licking reflex of mice on a plate heated at 55° C. according to the method of Jacob et co-workers (Arch. Int. Pharmacodyn. 122, 287-300, 1959: 133, 296-300, 1961).
# (a) Potentiation of the antalgic effect of DAla2 Met Enkephalin:
# (α) By the intraventricular route (ivt):
# (β) By the intravenous route:
# When administered by the intravenous route, the derivatives No. 2, 30 and 63 at the dose of 30 mg/kg produce a 100% increase in the licking time with respect to animals treated with DAla2 Met Enkephalin (0.3γ intraventricular).
# [3] = test system: phenylbenzoquinone-induced pain; assay: Phenylbenzoquinone or "writhing" test; assay type: in vivo, mouse; conditions: for protection from phenylbenzoquinone-induced pain: p<0.01 versus controls
# Excerpt: (3) Phenylbenzoquinone or "writhing" test according to the method of Siegmund and co-workers (Proc. Soc. Expert Biol. Med. 1957, 95, 729-731).
# Here again, if the antinociceptive effects of these compounds are compared with those of Thiorphan, a selective enkephalinase-inhibitor, a distinctly greater maximum effect is observed. […] This more pronounced analgesic effect is attributable to an improved protection of the endogenic opioid peptides, in relation with the inhibition not only of the enkephalinase, but also of the aminopeptidases involved in their hydrolysis.
# [4] = test system: withdrawal of the tail of mice; assay: Withdrawal of the tail immersed in water heated to 48° C; assay type: in vivo
# Protocol: (2) Test in mice of the withdrawal of the tail immersed in water heated to 48° C. according to the method of Sewell and Spencer (Neuropharmacology, 1976, 15, p. 683-688).
# [5] = test system: blood pressure; conditions: 10 mg/kg intravenous; in words
# Excerpt: (VI) Hypotensive Activity
# Specific enkephalin-potentiating activity, (Laubie M. Schmith H., Vincent M., Remon D. Central cardiovascular effects of Morphinometic peptides in dogs. European Journal of Pharmacology, vol. 46, 67-71, 1977).
# [6] = test system: licking reflex of mice on a plate heated at 55° C; assay: Hot plate test: specific antalgic effect; assay type: in vivo; conditions: for antalgic effect in the hot plate test: 55° C, intravenous, in words; for ED50: hot plate 55° C, i.v.
# Protocol: as §1
# (b) Specific antalgic effect
# By the intravenous route.
# [7] = test system: immobile periods of mice; conditions: 1 mg/kg i.v.; p<0.001; in words
# Excerpt: Forced swimming or "Mice Despair" test according to Porsolt's method.
# This test is representative of an antidepressive effect.
# [8] = test system: mice; assay: Subacute toxicity, intraperitoneal, three weeks
# Protocol: The derivative 63 was administered by the intraperitoneal route for three weeks to mice at the dose of 50 mg/kg three times a day (150 mg/kg/day).
# [9] = test system: (Met^5) enkephalin liberated by depolarisation of striatum sections; assay: Protection of endogenic enkephalins liberated by depolarisation of striatum sections; assay type: cell-based, rat; conditions: for (Met^5) liberated enkephalin: 50 mM KCl, no inhibitor: 120 ± 25
# Protocol: (II) Protection of the endogenic […] liberated by depolarisation of the brain sections
# Stratium sections of the rat are incubated in a medium of Krebs-Ringer and the (Met^5) enkephalin liberated by addition of 50 mM KCl is evaluated by radioimmunologic dosage (Patey and Coll., Science, 1981, 212, 1153-1155).
# The higher protection of the liberated enkephalins afforded by these compounds is thence attributed to the inhibition of peptidases (probably aminopeptidases) other than those which are sensitive to thiorphan.
# [10] = 30 γ/mouse ivt, D Ala2 Met Enkephalin 0.3 γ/mouse
# [11] = 30 mg/kg intravenous, DAla2 Met Enkephalin 10 to 30γ/mouse ivt 15 minutes later
molecule,measurement,setting,value
O=CN(O)CC(Cc1ccccc1)NC(=O)CC(=O)O (stereo not drawn) [Derivative 69],IC50,[1],7 nM
O=CN(O)CC(Cc1ccccc1)NC(=O)CC(=O)NCc1ccccc1 (stereo not drawn) [Derivative 71],IC50,[1],200 nM
D Ala2 Met Enkephalin [reference compound],activity of D Ala2 Met Enkephalin alone,"[2]; 0.3 γ/mouse, intraventricular",inactive in itself
N-[2-(N-hydroxy β-trifluoroethyl carboxamido)3-phenyl propanoyl]-glycine [Derivative 53],protection from phenylbenzoquinone-induced pain,[3]; 1 mg/kg i.v.,protect the treated animals from phenylbenzoquinone-induced pain
same,antagonism of the protective effect by Naloxone,[3]; in words,antagonized by Naloxone
same,potentiation of DAla2 Met Enkephalin,[4]; 5 mg/kg,also observed
same,reduction in the blood pressure,[5],reduction in the blood pressure
same,increase in the licking time with respect to animals treated with DAla2 Met Enkephalin (0.3γ intraventricular),[2],100%
same,antalgic effect in the hot plate test,[6],have an antalgic effect
same,ED50,[6],3 mg/kg
same,duration (in seconds) of the immobile periods with respect to the controls,[7],significantly reduces
same,IC50,[1],50 nM
"O=CN(O)CC(Cc1ccccc1)C(=O)NCC(=O)NCc1ccc(F)cc1 (stereo not drawn) [Derivative 63, N-(N-hydroxy 3-formamido 2-benzylpropanoyl)-glycine p-fluoro benzylamide]",weight increase rate and signs of toxicity,[8]; 50 mg/kg i.p. three times a day (150 mg/kg/day),did not exhibit any change in the weight increase rate or any sign of toxicity
same,weight of the organs and anatomic-pathologic examination,"[8]; 50 mg/kg i.p. three times a day, versus solvent controls",no difference
"O=C(O)CNC(=O)C(CS)Cc1ccccc1 (stereo not drawn) [Thiorphan, reference compound]",elimination of the abdominal stretchings of the mouse,"[3]; in words, thiorphan even at a heavy dose",never completely eliminates the abdominal stretchings
same,(Met^5) liberated enkephalin,[9]; added inhibitor 10^-7 M,280 ± 30 pmol/g/min
same,recovery of the pentapeptide,"[9]; in words, presence of thiorphan",approximately doubled
N-[2-(N-hydroxy carbamoyl) 3-phenyl propanoyl]-glycine methyl ester [Derivative 30],(Met^5) liberated enkephalin,[9]; added inhibitor 10^-7 M,600 ± 30 pmol/g/min
same,antagonism of the potentiating effect by Naloxone,[2]; intraventricular,antagonised by Naloxone
same,potentiation of the effect of a subactive dosage (0.3γ) of D Ala2 Met Enkephalin,[2]; intraventricular,significantly potentiated
same,% increase in the licking time with respect to animals treated with D Ala2 Met enkephalin,[2]; [10],320%
same,IC50,[1],3 nM
N-[2-(N-hydroxy carbamoyl 3-phenyl propanoyl]-glycine [Derivative 32],IC50,[1],5 nM
N-(2-bensyloxyamino 3-phenyl propanoyl)-glycine isoamylamide [Derivative 22],protection from phenylbenzoquinone-induced pain,[3]; 18 mg/kg i.v.,protect the treated animals from phenylbenzoquinone-induced pain
same,antagonism of the protective effect by Naloxone,[3]; in words,antagonized by Naloxone
same,potentiation of DAla2 Met Enkephalin,[4]; [11],potentiate very significantly
same,increase in the licking time with respect to animals treated with DAla2 Met Enkephalin (0.3γ intraventricular),[2],100%
same,antalgic effect in the hot plate test,[6],have an antalgic effect
same,ED50,[6],18 mg/kg
same,IC50,[1],100 nM
N-(N-benzyloxy 3-formamido 2-benzyl propnaoyl)-glycine methyl ester [Derivative 39],(Met^5) liberated enkephalin,[9]; added inhibitor 10^-7 M,630 ± 50 pmol/g/min
same,% increase in the licking time with respect to animals treated with D Ala2 Met enkephalin,[2]; [10],300%
same,ED50,[6],25 mg/kg
same,IC50,[1],3 nM
"COC(=O)CNC(=O)[C@H](Cc1ccccc1)NP(=O)(O)O [Derivative 2, N-phosphoryl L-phenylalanine-glycine methyl ester]",protection from phenylbenzoquinone-induced pain,[3]; 15 mg/kg i.v.,protect the treated animals from phenylbenzoquinone-induced pain
same,antagonism of the protective effect by Naloxone,[3]; in words,antagonized by Naloxone
same,potentiation of DAla2 Met Enkephalin,[4]; [11],potentiate very significantly
same,increase in the licking time with respect to animals treated with DAla2 Met Enkephalin (0.3γ intraventricular),[2],100%
same,antalgic effect in the hot plate test,[6],have an antalgic effect
same,ED50,"[6]; Mus musculus, iv, read-out: ED50",30 mg/kg
same,IC50,[1],70 nM
N-phorphoryl L-alanine-thioproline trifluoroethyl ester [Derivative 21],(Met^5) liberated enkephalin,[9]; added inhibitor 10^-6 M,550 ± 40 pmol/g/min
same,antagonism of the potentiating effect by Naloxone,[2]; intraventricular,antagonised by Naloxone
same,potentiation of the effect of a subactive dosage (0.3γ) of D Ala2 Met Enkephalin,[2]; intraventricular,significantly potentiated
same,% increase in the licking time with respect to animals treated with D Ala2 Met enkephalin,[2]; 30 γ/mouse ivt + D Ala2 Met Enkephalin 0.3 γ/mouse + Naloxone 10 mg/kg s.c.,18%
same,% increase in the licking time with respect to animals treated with D Ala2 Met enkephalin,[2]; [10],350%
same,IC50,[1],8 nM
"COC(=O)CC(=O)NC(Cc1ccccc1)NP(=O)(O)O (stereo not drawn) [Derivative 4, N-phosphoryl, N'-(2-methoxycarbonylacetyl) 1,1-diamino 2-phenyl ethane]",IC50,[1],100 nM
